{"source": "patent US8846393B2", "about": "“Methods of improving stem cell homing and engraftment” (Gamida-Cell Ltd., priority 2005, dated 2014)", "system": "NOD/SCID mice", "assay": "Transplantation of human CD34+ cells into NOD/SCID mice, engraftment and quantification of SCID repopulating cells", "type": "in vivo", "conditions": "for engraftment (mice positively engrafted): 3-weeks with cytokines+NA, 4-weeks post transplantation", "from_the_text": "FIGS. 4a-4f is a graphic representation of the effect of nicotinamide on homing and engraftment of human hematopoietic cells transplanted into NOD/SCID mice. FIGS. 4a and 4b show the percentage of human (CD45+) cells in the cell populations before transplantation: non-cultured CD34^+ cells (non-cultured, gray ovals), the entire progeny of cultures following 3-week exposure to cytokines alone (cytokines alone, closed ovals), or cytokines and nicotinamide (cytokines+NA, arrows). The percent of engraftment 4 weeks post transplantation was determined by flow cytometry of human CD45 cells in the NOD/SCID marrow (y-axis). The numbers of SCID repopulating cells (SRC) were calculated by plotting the engraftment frequencies at each dose. The resultant curves indicates the estimated frequency of SRCs within non-cultured CD34+ cells (FIG. 4c), culture with cytokines (FIG. 4d) or cytokines and nicotinamide (FIG. 4e). The number shown in each box indicates the calculated frequency of SRCs using the maximum likelihood estimator. […] Mouse bone marrow cells were dually stained with FITC-conjugated anti-CD45 (human) and antibodies to human differentiation markers as indicated. Percentages of dual positive cells are shown within each quadrant. Note the greater than 7 fold enhancement of engraftment in the nicotinamide-treated mice (FIG. 4e), as compared with mice treated with cytokines alone (FIG. 4d); FIGS. 5a-5c are a graphic representation of the effect of nicotinamide (NA) on the engraftment potential of cells cultured under differentiation-promoting conditions. Cultures were initiated with purified cord blood-derived CD34+ cells in medium supplemented with SCF, TPO, IL-6 and FLT3, 50 ng/ml each, and IL-3, 20 ng/ml, with (cytokines+NA, arrows) or without (cytokines, ovals) 10 mM nicotinamide. After 3 weeks, cells were harvested, and transplanted into SCID mice as indicated. Mice were transplanted with 1.25−5×10^4 CD34+ cells or with their progeny following expansion. Mice were sacrificed 4 weeks later and bone marrow cells were analyzed by FACS for the presence of CD34+ (human progenitor) and CD45+ (human) cells. Mice were scored as engrafted when the number of human (CD45+) cells constituted […] of the marrow population. […] FIGS. 4b and 4c show the percentage of total human (CD45+) (FIG. 4b) cells and human progenitor (CD45+CD34+) (FIG. 4c) cells in the bone marrow of mice transplanted with cells derived from culture initiated with 1.25×10^4 CD34+ cells. Note the enhanced engraftment of both total human, and human progenitor cells resulting from nicotinamide treatment. Purified CD34+ cells were cultured in culture bags (American Fluoroseal Co., Gaithersburg, Md.) at 1×10^4 cells/ml in MEMα medium, 10% fetal calf serum (FCS) and cytokines: Thrombopoietin (TPO), interleukin-6 (IL-6), FLT-3 ligand and stem cell factor (SCF), each at a final concentration of 50 ng/ml (Perpo Tech, Inc., Rocky Hill, N.J.), with or without 5 mM nicotinamide (NA) (Sigma Aldrich, Milwaukee, Wis.) and incubated at 37° C. in a humidified atmosphere of 5% CO2 in air. […] Until week 3, the cultures were topped weekly with the same volume of fresh medium and then weekly demi-depopulated. Cell counting, colony forming unit (CFUc) assay and immunophenotype analysis were performed as described hereinbelow. NOD/SCID mice were bred and maintained in sterile intra-ventilated cages (Techniplast, Bugugiatte, Italy). Eight-week-old mice were sub-lethally irradiated as described above. […]", "data": [{"smiles": "NC(=O)c1cccnc1", "note": "[nicotinamide]", "values": [{"measurement": "mice with human (CD45+) cells in bone marrow", "setting": "IL-3 supplemented cultures (SCF, TPO, IL-6, FLT3, IL-3) with 10 mM nicotinamide, 1.25×10^4 cells, 4 weeks", "result": "5 out of 5"}, {"measurement": "engraftment of human progenitors (CD45+CD34+)", "setting": "IL-3 supplemented cultures with 10 mM nicotinamide, 4-weeks after transplantation", "result": "observed only in mice transplanted with cells cultured with nicotinamide"}, {"measurement": "number of SRCs relative to non-cultured cells", "setting": "culture with nicotinamide and cytokines", "result": 14, "unit": "fold"}, {"measurement": "engraftment (mice positively engrafted)", "setting": "progeny of 3×10^3 CB CD34+ cells", "result": 50, "unit": "%"}, {"measurement": "engraftment (mice positively engrafted)", "setting": "progeny of 6×10^3 CD34+ cells", "result": 100, "unit": "%"}]}]}
